These results are taken from patent US8772504B2, “Substituted benzoxazole, benzimidazole, oxazolopyridine and imidazopyridine derivatives as gamma secretase modulators” (Janssen Pharmaceuticals, Inc., priority 2009, dated 2014).

Series [1] deals with Aβ42. Kind of series: Screening for γ-secretase-modulating activity, Method 2: Aβ42 Alphalisa on SKNBE2 cell supernatant. The format is cell-based. As to conditions: Method 2, Table 3c, SKNBE2 cells carrying APP 695 wild type, overnight incubation. The method, boiled down: (§1)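 SKNBE2 cells expressing wild-type APP695, plated at 10^4 cells/well with compound at several concentrations and incubated overnight at 37° C. Aβ42 (C-terminal capture, N-terminal biotinylated detection) and Aβtotal (N-terminal/4G8 pair) measured in supernatant by AlphaLISA. IC50 from 4-parameter fit of percent of compound-free control.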
Background: In Alpha technology, singlet oxygen from a donor bead excites a nearby acceptor bead.

In series [2] the test system is T1, Notch-processing activity of the γ-secretase-complex.
T1 construct: average IC50 Notch cell-based assay (luciferase readout); other: N2-CHO/DL-CHO co-culture 16 h; five-point curve 3 μM-
Kind of series: Notch cell-based assay (N2-CHO/DL-CHO co-culture, Dual-Glo luciferase). Details: species or system mouse. As to conditions: N2-CHO/DL-CHO co-culture 16 h; five-point curve 3 μM-0.3 nM. The source says:
The Notch cell-based assay was based on the interaction of Notch and its ligand in a co-culture system and utilized the Dual-Glo Luciferase Assay System (Promega) to monitor NICD production. 2 stable cell lines, N2-CHO and DL-CHO, were established to express full-length mouse Notch2 and Delta respectively. Cells that expressed mouse Notch were also transfected with 2 plasmids, pTP1-Luc and pCMV-RLuc, to express firefly and Renilla luciferase. Expression of firefly luciferase was under the control of TP1 promoter that responded to NICD activation.
N2-CHO cells were seeded at 1×10^5/well in 24-well plates the day before transfection. On the second day, cells were double transfected with 3 μg/well pTP1-Luc (expressing firefly luciferase) and 0.3 ng/well pCMV-RLuc (expressing Renilla luciferase). After 6 h incubation, transfected N2-CHO cells were washed and DL-CHO cells (2×10^5 cells/well) were added.
Compounds were pre-mixed with DL-CHO cell suspension in a five-point curve. Typically, compound treatment was performed in duplicate with a serial 1:10 dilution (3 μM-0.3 nM) in DMSO. The final concentration of DMSO in a given culture was 1%. Controls included non-transfected cells and transfected cells treated with a GSI or DMSO only. Luciferase assays were performed after 16 h co-culture and compound treatment.
The luciferase assay was carried out according to manufacture's instructions. Briefly, cells were washed with PBS (Phosphate Buffered Saline), lysed with Passive Lysis Buffer (Promega), and incubated at room temperature for 20 min. Lysates were mixed with Dual-Glo Luciferase Reagent and the firefly luciferase activity was measured by reading the luminescence signal in the EnVision 2101 Multilabel reader. Dual-Glo Stop & Glo Reagent was then added to each well and the Renilla luciferase signal was measured.

Series [3] has as its system Aβtotal. Nature of the series: Screening for γ-secretase-modulating activity, Method 2: Aβtotal Alphalisa on SKNBE2 cell supernatant. Type of series: cell-based. As to conditions: Method 2, Table 3c, SKNBE2 cells carrying APP 695 wild type, overnight incubation. The method in brief: as §1
Series [4] concerns Notch-processing activity of the γ-secretase-complex. Nature of the series: Notch cell-free assay (NICD production from recombinant Notch substrate N99). To be noted: 1 μM test compound, 0.3-0.5 μM Notch substrate, 37° C. for 6 to 22 h, western blotting. The format is biochemical, mouse. The procedure:
The Notch transmembrane domain is cleaved by gamma secretase to release
Notch Intracellular C-terminal Domain (NICD).
To monitor the effect of compounds on NICD production, a recombinant Notch substrate (N99) was prepared. The Notch substrate, comprised of mouse Notch fragment (V1711-E1809), an N-terminal methionine and a C-terminal FLAG sequence ([…]), was expressed in E. coli and purified on a column containing an anti-FLAG M2 affinity matrix.
A typical Notch cell-free assay consisted of 0.3-0.5 μM Notch substrate, an enriched preparation of γ secretase and 1 μM of a test compound (compounds 8, 15, 92, 108, 114 and 130 of the present invention). Controls included a γ secretase inhibitor (GSI), such as (2S)—N-[2-(3,5-difluorophenyeacetyl]-L-alanyl-2-phenyl-glycine 1,1-dimethylethyl ester (DAPT) or (2S)-2-hydroxy-3-methyl-N-[(1S)-1-methyl-2-oxo-2-[[(1S)-2,3,4,5-tetrahydro-3-methyl-2-oxo-1H-3-benzazepin-1-yl]amino]ethyl]-butanamide (Semagacestat), and DMSO, the final concentration of DMSO being 1%. Recombinant Notch substrate was pre-treated with 17 μM DTT (1,4-dithiothreitol) and 0.02% SDS (Sodium Dodecyl Sulfate) and heated at 65° C. for 10 min. The mixture of substrate, gamma secretase and compound/DMSO was incubated at 37° C. for 6 to 22 hours (h). 6 h incubation was sufficient to produce the maximal amount of NICD and the cleaved product remained stable for an additional 16 h. Reaction products were processed for SDS PAGE (Sodium Dodecyl Sulfate-Poly Acrylamide Gel Electrophoresis) and western blotting. Blots were probed with an anti-Flag M2 antibody, followed by LI-COR infrared secondary antibody, and analyzed with the Odyssey Infrared Imaging System (LI-COR® Biosciences).
(In western blotting, separated proteins are transferred to a membrane and probed.)

`COc1nc(Nc2cccc3c2nc(-c2ccc(F)cc2)n3C)ccc1-n1cnc(C)c1` [Compound 15]: the figures for the IC50 in series [1] (Homo sapiens) and in series [3] (Homo sapiens) were 6 nM and 7940 nM, respectively. Further, in series [2], the “inhibition in Notch cell-based assay (luciferase readout)” value (shortened to “inhibition in Notch cell-based assay”) is “non-inhibitory”. Besides, the “effect on the Notch-processing activity of the γ-secretase-complex (production of NICD)” value (from here on “effect on the Notch-processing activity”) in series [4] was “did not show an effect”.
As to `Cc1cn(-c2ccc(Nc3cccc4c3nc(-c3ccc(F)cc3)n4C)cc2F)cn1` [Compound 67], the IC50 is 36 nM in series [1] and greater than 10000 nM in series [3].
Consider `COc1cc(Nc2nccc3c2nc(-c2ccc(F)cc2)n3C)ccc1-n1cnc(C)n1` [Compound 92], for which the IC50 is 178 nM in series [1] and 4270 nM in series [3]. The “inhibition in Notch cell-based assay” value in series [2] was “non-inhibitory”. In series [4], the “effect on the Notch-processing activity” value is reported as “did not show an effect”.
Consider `COc1cc(Nc2cc(C(C)C)nc3c2nc(-c2ccc(F)cc2)n3C)ccc1-n1cnc(C)n1` [Compound 110], for which the IC50 is 20 nM in series [1] (Homo sapiens) and greater than 10000 nM in series [3] (Homo sapiens).
`COc1nc(Nc2cc(F)cc3c2nc(-c2ccc(F)cc2)n3C)ccc1-n1cnc(C)c1` [Compound 115]: the IC50 in series [1] is 2 nM; in series [3], greater than 10000 nM.
`COc1cc(Nc2cccc3c2nc(-c2ccc(F)cc2)n3C)ccc1-n1cnc(C)c1` [Compound 1] gave a melting point of 130.9 °C. For the same molecule, half-maximal inhibition in series [1] (Homo sapiens) (IC50) was put at 16 nM. The same molecule gave a concentration for half-maximal inhibition (IC50) in series [3] (Homo sapiens) of 590 nM.
The molecule `COc1cc(Nc2cccc3c2nc(-c2ccc(F)cc2)n3C)ccc1-n1cnc(C)n1` [Compound 4] registered a melting point of 185.2 °C. In addition, the IC50 in series [1] (Homo sapiens) is 27 nM. Further, the IC50 in series [3] (Homo sapiens) was greater than 10000 nM.
As to `COc1cc(Nc2nccc3c2nc(-c2ccc(F)cc2)n3C)ccc1-n1cnc(C)c1` [Compound 8], the IC50 in series [1] (Homo sapiens) was 17 nM; in series [3] (Homo sapiens) it was greater than 10000 nM. The “effect on the Notch-processing activity” value in series [4] is “did not show an effect”.
Take `COc1cc(-c2nc3c(Nc4ccc(-n5cnc(C)n5)c(OC)c4)nccc3n2C)ccc1Cl` [Compound 114]: the melting point came to 186.8 °C. The molecule further displayed an IC50 in series [1] (Homo sapiens) of 21 nM. Besides, the “inhibition in Notch cell-based assay” value in series [2] is recorded as “non-inhibitory”. In addition, half-maximal inhibition in series [3] (Homo sapiens) (IC50) required 3890 nM. In addition, the “effect on the Notch-processing activity” value in series [4] is “did not show an effect”.
With `COc1cc(Nc2cccc3c2nc(-c2ccc(F)cc2)n3C(C)C)ccc1-n1cnc(C)n1.Cl.Cl` [Compound 75], the IC50 came out at 45 nM in series [1] and 7760 nM in series [3].
For the molecule `Cc1ncn(-c2ccc(Nc3cccc4c3nc(-c3ccc(F)cc3)n4C(C)C)cc2)n1.Cl.Cl` [Compound 73], the IC50 in series [1] is 288 nM; in series [3] it was greater than 10000 nM.
Consider `COc1cc(Nc2nc(C)cc3c2nc(-c2ccc(F)cc2)n3C)ccc1-n1cnc(C)n1` [Compound 164], for which the IC50 is 46 nM in series [1] and greater than 10000 nM in series [3].
Take `COc1cc(Nc2nccc3c2nc(-c2ccccc2C(F)(F)F)n3C)ccc1-n1cnc(C)n1` [Compound 130]: the results for the IC50 in series [1] and in series [3] were 129 nM and greater than 10000 nM, respectively. Also, the “inhibition in Notch cell-based assay” value in series [2] is on record as “non-inhibitory”. For the same molecule, in series [4], the “effect on the Notch-processing activity” value was “did not show an effect”.
With `COc1cc(Nc2cccc3c2nc(Oc2ccccc2)n3C)ccc1-n1cnc(C)c1` [Compound 61], the values for the IC50 in series [1] and in series [3] were 141 nM and 8510 nM, respectively.
Turning to `Cc1ncn(-c2ccc(Nc3cccc4c3nc(-c3ccc(F)cc3)n4C(C)C)cn2)n1` [Compound 76], the IC50 in series [1] was 72 nM; in series [3] it was greater than 10000 nM.
Regarding `CCn1c(CC2CC2)nc2c(Nc3ccc(-n4cnc(C)c4)c(OC)c3)cccc21` [Compound 36], the 50% inhibitory concentration (IC50) in series [1] stood at 78 nM; in series [3], 7410 nM.

Usually IC50 stands for the concentration at which inhibition is half-maximal. As a reminder, the melting point is the temperature of the solid-liquid transition.
